Broadly, the IC50 is the point on the concentration scale where inhibition reaches its midpoint. Usually CC50 stands for the concentration at which the toxic effect on the cells reaches its halfway point. Low readings indicate harm at low concentration, high ones better tolerance by the cells. One may read the melting point as the temperature, or range, at which the solid turns liquid. One may read the IC90 as the concentration at which the effect reaches the 90% level.

Structures are written as SMILES. Where two headings read alike, the source gives them in different places.

The subject of data set [1] is Trypanosoma brucei brucei trypomastigotes, suramin-sensitive strain (Squib 427). The data set is described as follows: T. b. brucei growth/viability assay (resazurin). The format is cell-based. The conditions noted are these: Trypanosoma brucei, 72 h, 3 days. On the procedure:
After 3 days, parasite growth was assessed fluorimetrically following the addition of resazurin. After 24 h at 37 °C, fluorescence was measured (λex = 550 nm, λem = 590 nm). The results were expressed as a percentage reduction in parasite growth/viability compared to control wells, and a 50% inhibitory concentration (IC50) was calculated.
(In general: Alamar Blue is a resazurin reagent that responds to reducing activity.)

Data set [2] concerns Trypanosoma cruzi (Tulahuen CL2 β-galactosidase) amastigotes in hMRC-5SV2 cells. Briefly: T. cruzi intracellular amastigote assay (β-galactosidase/CPRG). The class given is cell-based. The conditions noted are these: Trypanosoma cruzi, TULAHUEN, 168 h, intracellular amastigotes, 7 days; read-out: IC50 T. cruzi intramacrophage amastigotes (converted). In a few lines: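 Infected hMRC-5SV2 fibroblasts exposed 7 days to compound at 64, 16, 4, 1 and 0.25 μM. Parasite burden read as β-galactosidase cleavage of CPRG at 540 nm after 4 h at 37 °C. Percent growth reduction versus control wells, IC50 calculated.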

For data set [3], the system named is L. infantum (MHOM/MA(BE)/67) amastigotes in primary peritoneal mouse macrophages. Briefly: L. infantum intramacrophage amastigote assay (microscopic burden). The format is cell-based, Leishmania infantum. The conditions noted are these: Leishmania infantum, Macrophage, 120 h, 5 days, mouse macrophages as host. In a few lines: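 Amastigotes in primary peritoneal mouse macrophages were exposed 5 days to 64, 16, 4, 1 and 0.25 μM compound. Amastigotes per macrophage counted microscopically; percent burden reduction versus untreated wells gave IC50.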

The next data set in a line: in vitro. The note with it: human, CC50 hMRC-5 (cytotoxicity).
A further data set deals with murine macrophages. Briefly: Qualitative toxicity toward mouse macrophages. The conditions noted are these: concentration at which toxicity was observed; 64, 16 and 4 µM tested. On the procedure:
The cytotoxicity of compounds was evaluated toward human diploid embryonic lung fibroblast hMRC-5SV2 cells, derived from fetal lung tissue and first described in 1970. hMRC-5SV2 cells were cultured in 96-well plates with five concentrations of the compound (64, 16, 4, 1, and 0.25 μM). After 3 days of incubation, the cell viability was assessed fluorimetrically after the addition of resazurin, and fluorescence was measured (λex = 550 nm, λem = 590 nm). The results were expressed as a percentage reduction in cell growth/viability compared to control wells, and a 50% cytotoxic concentration (CC50) was calculated. The reference cytotoxic drugs were tamoxifen or ivermectin. Additionally, toxicity toward mouse macrophages was qualitatively observed. Three concentrations were included (64, 16, and 4 µM), and the range of toxicity was ranked from the least toxic to the most toxic compound.

Data set [4] concerns WT LV9 L. donovani promastigotes. The data set is described as follows: L. donovani promastigote assay (MTT), wild type. The class given is cell-based. The note with it: Leishmania donovani, 72 h, 3 days; read-out: IC50 ± SD WT LV9 L. donovani promastigotes. The procedure:
(§1) L. donovani promastigote forms from the logarithmic phase culture were suspended to yield 10^6 cells/mL. Miltefosine was used as the antileishmanial reference compound. Compounds to be evaluated and miltefosine were distributed in the plates by making a serial dilution. The final concentrations used were between 100 µM and 50 nM. Triplicates were used for each concentration. After a 3-day incubation period at 27 °C in the dark and under a 5% CO2 atmosphere, the viability of the promastigotes was assessed using the tetrazolium-dye (MTT) colorimetric method, which measures the reduction of a tetrazolium component (MTT) into an insoluble formazan product by the mitochondria of viable cells. After the incubation of the cells with the MTT reagent, a detergent solution (Triton X100, HCl) was added to lyse the cells and dissolve the colored crystals. The absorbance at 570 nm, directly proportional to the number of viable cells, was measured using an ELISA plate reader. The results were expressed as the concentrations inhibiting parasite growth by 50% (IC50) ± SD after a 3-day incubation period.

For data set [5], the system named is HePC-R L. donovani promastigotes. Briefly: L. donovani promastigote assay, miltefosine-resistant strain. The class given is cell-based. The conditions noted are these: Leishmania donovani, read-out: IC50 ± SD HePC-R L. donovani promastigotes. On the procedure: as §1
Data set [6] has as its system L. donovani LV9 axenic amastigotes. The data set is described as follows: L. donovani axenic amastigote assay (SYBR green I). The class given is cell-based, Leishmania donovani. The conditions noted are these: for IC50: read-out: IC50 ± SD L. donovani axenic amastigotes. On the procedure:
L. donovani amastigote forms were suspended to yield 10^7 cells/mL. The final compound concentrations used were 100 µM, 10 µM, 1 µM, 500 nM, and 50 nM. Duplicates were used for each concentration. Cultures were incubated at 37 °C for 72 h in the dark and under a 5% CO2 atmosphere; then, the viability of the amastigotes was assessed using the SYBR® green I (Invitrogen, France) incorporation method. Parasite growth was determined by using SYBR® Green I, a dye with marked fluorescence enhancement upon contact with parasite DNA. Parasites were lysed following Direct PCReCell Genotyping without DNA isolation protocol (Euromedex, Souffelweyersheim, France). A total of […] of SYBR Green I was added to each well, and the contents were mixed. Fluorescence was measured with Mastercylcer® ep realplex (Eppendorf, Montesson, France). The fluorescence obtained was compared to those from the range obtained with different parasite densities.

In data set [7] the test system is WT LV9 L. donovani intramacrophage amastigotes. Briefly: L. donovani intramacrophage amastigote assay. The format is cell-based, Leishmania donovani.
Data set [8] is described as follows: Solubility observations (crystals in assay, insolubility in solvents). The format is physicochemical. The note with it: noted in L. donovani assay, Table S5.
Data set [9] has as its system Trypanosoma brucei brucei trypomastigotes, suramin-sensitive strain (Squib 427). On the set-up: method as in earlier work. The conditions noted are these: Table 1, preliminary study; read-out: IC50 T. b. brucei; cited from earlier work.
Data set [10] relates to Trypanosoma cruzi (Tulahuen CL2 β-galactosidase) amastigotes in hMRC-5SV2 cells. On the set-up: method as in earlier work. The note with it: Table 1, preliminary study; read-out: IC50 T. cruzi; cited from earlier work.
The subject of data set [11] is L. infantum (MHOM/MA(BE)/67) amastigotes in primary peritoneal mouse macrophages. Further details: method as in earlier work. The conditions noted are these: Table 1, preliminary study; cited from earlier work.
[12] abbreviates: Leishmania donovani, WT LV9, ± SD in Tables S5/S6, read-out: IC50 L. donovani intramacrophage amastigotes.

`O=C(/C=C/c1ccccc1Cl)/C=C/c1ccccc1Cl` [1e]: the IC50 in data set [1] was 7.8 µM; in data set [2], 12 µM; in data set [3], 6.8 µM; in [4], 3.6 ± 0.1 µM; in data set [5], 7.8 ± 1 µM; in [6] (Leishmania donovani, LV9), more than 200 µM. Also, in data set [7] (setting [12]), the IC50 is 7.4 ± 1.7 µM. Also, in “in vitro”, the midpoint of cytotoxicity, the CC50 at 3 days, lay at 29.4 µM. Moreover, the “Toxicity (T) observed toward murine macrophages” value (“Toxicity” below) in the data set with murine macrophages is reported as “T2 (T2 = 16)”. The “observed macrophage death / lysis observed at” value in the data set on macrophages is more than 37.5 µM.
As to `O=C(/C=C/c1ccc(Cl)cc1)/C=C/c1ccc(Cl)cc1` [1f], the IC50 in [1] is 2.1 µM; in [2], 35.6 µM; in [3] it was more than 60 µM; in data set [4] it was 6.7 ± 0.6 µM; in [5], 3.7 ± 0.2 µM; in data set [6] (Leishmania donovani, LV9), more than 200 µM. Besides, the half-inhibitory concentration (IC50) in [7] (setting [12]) turned out to be 6.3 ± 1.9 µM. In “in vitro”, this compound displayed a CC50 at 3 days of 42.4 µM. Besides, the “presence of crystals (asterisk mark)” value in data set [8] is “* (presence of crystals at > 50 µM)”. Also, the “observed macrophage death / lysis observed at” value in the data set on macrophages is more than 50 µM.
For `C=CCOc1ccc(OC)cc1/C=C/C(=O)/C=C/c1cc(OC)ccc1OCC=C` [1n], the melting point was determined as 83 °C. The same compound had an IC50 in [1] of 26.6 µM. In [2], the IC50 was 24.2 µM. Besides, the half-inhibitory concentration (IC50) in data set [3] is more than 64 µM. Besides, the CC50 at 3 days in the data set “in vitro” is more than 16 µM.
Consider `COc1cc(Br)c(O)c(/C=C/C(=O)/C=C/c2cc(OC)cc(Br)c2O)c1` [1p], for which the IC50 in [1] was not above 0.3 µM; in data set [2] it was not above 0.3 µM; in data set [3] it was 1 µM; in data set [9] it was not above 0.3 µM; in data set [10], not above 0.3 µM. Besides, the CC50 at 3 days in “in vitro” stood at 1 µM. Besides, the “Toxicity” value in the data set on murine macrophages is “T1 (T1 = 64)”.
`O=C(/C=C/c1ccc(C(F)(F)F)cc1)/C=C/c1ccc(C(F)(F)F)cc1` [1r]: the IC50 is 0.2 µM in data set [1], 1.6 µM in [2], more than 64 µM in data set [3] and more than 64 µM in data set [11]. In “in vitro”, this compound displayed a CC50 at 3 days of 26.2 µM.
For `O=C(/C=C/c1ccc(OC(F)(F)F)cc1)/C=C/c1ccc(OC(F)(F)F)cc1` [1s], the 50% inhibitory concentration (IC50) was 0.5 µM in data set [1], 1.8 µM in [2], more than 64 µM in [3] and more than 64 µM in [11]. For the same compound, the CC50 at 3 days in the data set “in vitro” is 32.8 µM.
For the compound `N#Cc1ccc(/C=C/C(=O)/C=C/c2ccc(C#N)cc2)cc1` [1t], the IC50 in [1] is 1.5 µM; in data set [2], 11.9 µM; in data set [3], 5.1 µM; in [4], 6.6 ± 0.6 µM; in [5], 2.4 ± 0.1 µM; in data set [7] (setting [12]), more than 50 µM. This compound returned a CC50 at 3 days in “in vitro” of 57.1 µM. Also, the “Toxicity” value in the data set with murine macrophages was “T2 (T2 = 16)”. In addition, the “IC50 ± SD L. donovani axenic amastigotes” value in data set [6] (LV9) is given as “T at 6.25-200 µM”. For the same compound, the “observed macrophage death / lysis observed at” value in the data set on macrophages was more than 100 µM.
`Cl.Cl.O=C(/C=C/c1cccnc1)/C=C/c1cccnc1` [1x]: the IC50 in data set [1] was not above 0.3 µM; in data set [2], 0.9 µM; in [3] it was 1 µM; in data set [9], not above 0.3 µM. Further, half-maximal cytotoxicity in the data set “in vitro” (CC50 at 3 days) was put at 1.1 µM. For the same compound, the “Toxicity” value in the data set on murine macrophages is listed as “T1 (T1 = 64)”.
Turning to `Cl.Cl.O=C(/C=C/c1ccncc1)/C=C/c1ccncc1` [1y], the IC50 in [1] was not above 0.3 µM; in data set [2] it was not above 0.3 µM; in data set [3], 1 µM; in data set [9], not above 0.3 µM; in data set [10] it was not above 0.3 µM. In the data set “in vitro”, half-maximal cytotoxicity (CC50 at 3 days) was put at 1.1 µM. In addition, in the data set with murine macrophages, the “Toxicity” value is on record as “T3 (T3 = 4)”.
In “in vitro”, `C[C@@H]1[C@H](O)[C@@H](C)/C=C/C=C/C=C/C=C/C=C/C=C/C=C/[C@H](O[C@@H]2O[C@H](C)[C@@H](O)[C@H](N)[C@@H]2O)C[C@@H]2O[C@](O)(C[C@@H](O)C[C@@H](O)[C@H](O)CC[C@@H](O)C[C@@H](O)CC(=O)O[C@H]1C)C[C@H](O)[C@H]2C(=O)O` [Amphotericin B, reference compound] yielded a CC50 at 3 days of more than 64 µM. In addition, the IC50 in [4] turned out to be 0.04 ± 0.01 µM; in data set [6] (Leishmania donovani, LV9) it was 0.024 µM; in data set [7] (setting [12]), 0.04 µM; in data set [7] (Leishmania donovani, as worded in footnote a of Table S5, value stands in a middle column of the table, read-out: IC50 against leishmanial WT and HePC-R intramacrophagic amastigotes), 0.08 ± 0.024 µM. Besides, the 90% effect concentration (IC90) turned out to be 0.03 µM in data set [6] (Leishmania donovani, Table S6, read-out: IC90 ± SD LV9 axenic amastigotes) and 0.05 µM in [7] (Leishmania donovani, Table S6, read-out: IC90 ± SD LV9 intramacrophage amastigotes). In data set [6] (Table S6), the “IC99 ± SD LV9 axenic amastigotes” value was 0.039 µM. In addition, the “IC99 ± SD LV9 intramacrophage amastigotes” value in data set [7] (Table S6) is 0.07 µM.
